According to patent publication US20240067702A1, “LACTAM-MODIFIED P[…]” (DONGBAO PURPLE STAR (HANGZHOU) BIOPHARMACEUTICAL CO., LTD., priority 2020, published 2024):
*1 amine or outer side, *2 acyl side, *3 side chain or, on linkers, in order; H or OH if unused. Where a SMILES comes first, the peptide text is derived from it. Bridges are numbered along the chain shown (N, C = ends). Side-chain parts run from the residue outwards. [ ]: non-standard residue; d: D form. The star is where a group is joined. C20 diacid = O=C(O)CCCCCCCCCCCCCCCCCCC(=O)*; γGlu = O=C(O)[C@H](CCC(=O)[*:2])N[*:1]; AEEA = NCCOCCOCC(=O)O; Aib = CC(C)(N)C(=O)O

Legend:
[1] = Plasma protein binding (PPB) test, mouse; type: in vitro ADME; parameters: key to PPB % unbound (H/M), M: NA means the plasma-protein binding is too high, and no free drug can be detected under a normal concentration of plasma protein; details: for fraction unbound at 4 h, 0.2 μM: pH 7.4, ultracentrifugation
Procedure: (§1) To study the binding of the test compounds to human/mouse plasma albumin.
(§2) 1. Matrix preparation: On the day of the experiment, the plasma was thawed in cold water and centrifuged at 3220 rpm for 5 min to remove all blood clots. The pH of the obtained plasma was measured and adjusted to 7.4±0.1 using 1% phosphoric acid or 1N sodium hydroxide as needed.
(§3) 2. Dilution steps of the test compounds: The test compounds were dissolved in dimethyl sulfoxide (DMSO) to prepare stock solutions at concentrations of 10 mM and 2 mM, respectively. A 40 μM working solution was prepared by diluting 2 μL of the stock solution (2 mM) with 98 μL of DMSO. A 400 μM working solution of the control compound was prepared by diluting 10 μL of the stock solution with 240 μL of DMSO. The working solution of the compound (5 μL) was mixed with the blank matrix (995 μL) at a ratio of 1:200 to prepare the loading matrix.
(§4) 3.1 An equal amount of 30 μL of the loading matrix (n=2) was transferred to the sample collection plate to prepare samples of time 0 (TO) for residue determination. The samples were immediately matched to the corresponding blank buffer in a final volume of 60 μL with a 1:1 volume ratio of plasma to buffer in each well. Then, 60 μL of 4% H3PO4 in H2O and 480 μL of stop solution containing an internal standard were then added to the TO samples of the test compounds. They were then stored at 2-8° C. with other samples pending for further processing.
(§5) 3.2 The remaining plasma samples were pre-incubated in a carbon dioxide incubator at 37±1° C. for 30 min. The prepared protein-free samples (F samples) and loading matrix samples (230 μL) were transferred to polycarbonate tubes (n=2) and ultracentrifuged at 37° C. and 155000×g (35000 rpm) for 4 hours.
(§6) 3.3 To prepare T samples (test samples), an additional matrix-containing sample was transferred to a separate 96-well plate (sample incubation plate) and incubated at 37° C. for 4 hours.
(§7) 3.4 After centrifugation, 30 μL of protein-free sample and 30 μL of T sample were transferred from the second layer of supernatant (below the upper layer) to a new sample collection plate. Each sample was mixed with the corresponding blank buffer or matrix in a final volume of 60 μL with a matrix:buffer volume ratio of 1:1. 60 μL of 4% H3PO4 aqueous solution and 480 μL of stop solution (containing internal standard) were added to all samples. The mixture was centrifuged at 4000 rpm for 20 min, and 100 μL of the supernatant of each sample was taken for LC-MS/MS analysis.

[2] = Pharmacokinetic evaluation in SD rats; type: in vivo; details: rat, 0.048 mg/kg, single SC 0.048 mpk; for half-life: read-out: Half-life T1/2 (converted); for Cmax: read-out: Maximum Plasma Concentration; for AUC(0-t): read-out: SC Concentration Integral AUC0-72 h
Procedure: To test the pharmacokinetics of compounds in SD rats in vivo
The pharmacokinetic characteristics of the compounds in rodents after subcutaneous injection were tested according to the standard protocol. In the experiment, the candidate compounds were formulated into clear solutions, and a single subcutaneous injection (SC, 0.048 mpk) was given to the rats. The injection vehicle was citrate buffer (20 mM, pH=7). Whole blood was collected and prepared to obtain plasma. Drug concentration was analyzed by LC-MS/MS method, and pharmacokinetic parameters were calculated by Phoenix WinNonlin software.

mouse plasma albumin = assay: Plasma protein binding (PPB) test, mouse; type: in vitro ADME; parameters: key to PPB % unbound (H/M), M: NA means the plasma-protein binding is too high, and no free drug can be detected under a normal concentration of plasma protein; details: ultracentrifugation
Procedure: as §1, §2, §3, §4, §5, §6, §7

human plasma albumin = assay: Plasma protein binding (PPB) test, human; type: in vitro ADME; parameters: key: NA means the plasma-protein binding is too high, and no free drug can be detected under a normal concentration of plasma protein; details: ultracentrifugation
Procedure: as §1, §2, §3
as §4, with “They were then stored at 2-8° C. with other samples pending for further processing.” left out

[3] = Pharmacokinetic evaluation in C57BL/6 mice; type: in vivo; details: mouse, plasma, 0.048 mg/kg
Procedure: To test the pharmacokinetics of compounds in C57BL/6 mice in vivo
The pharmacokinetic characteristics of the compounds in rodents after intravenous injection and subcutaneous injection were tested according to the standard protocol. In the experiment, the candidate compounds were formulated into clear solutions, and a single intravenous injection (IV, 0.048 mpk) and subcutaneous injection (SC, 0.048 mpk) were given to the mice. The vehicle for intravenous injection was PBS buffer (pH=7), and the vehicle for subcutaneous injection was citrate buffer (20 mM, pH=7). Whole blood was collected and prepared to obtain plasma. Drug concentration was analyzed by LC-MS/MS method, and pharmacokinetic parameters were calculated by Phoenix WinNonlin software.

Row | SMILES | fraction unbound at 4 h, 0.2 μM [1] | half-life ([2]; plasma) [h] | Cmax ([2]; plasma) [nM] | AUC(0-t) ([2]; plasma) [µM·h] | fraction unbound ([1]; ultracentrifugation, read-out: PPB % unbound (H/M)) | half-life ([2]; in vivo) [h] | AUC(0-t) ([2]; in vivo) [µM·h] | PPB % unbound (H/M), M (mouse plasma albumin) | PPB % unbound (H/M), H (human plasma albumin) | half-life ([3]; 0.048 mpk IV/SC, read-out: Half-life T1/2 (converted)) [h] | clearance ([3]; IV 0.048 mpk) [mL/h/kg] | AUC(0-t) ([3]; SC 0.048 mpk, read-out: SC Concentration Integral AUC0-72 h) [µM·h] | bioavailability ([3]; subcutaneous, SC 0.048 mpk vs IV 0.048 mpk, read-out: Bioavailability F) [%]
1 | CC[C@H](C)[C@H](NC(=O)[C@H](CC(C)C)NC(=O)[C@H](Cc1c[nH]c2ccccc12)NC(=O)[C@@H]1CCC(=O)NCCCC[C@H](NC(=O)[C@H](CCC(N)=O)NC(=O)[C@H](C)NC(=O)[C@H](CCCCNC(=O)COCCOCCNC(=O)COCCOCCNC(=O)CC[C@H](NC(=O)CCCCCCCCCCCCCCCCCCC(=O)O)C(=O)O)NC(=O)[C@H](CCCCN)NC(=O)[C@H](CC(=O)O)NC(=O)[C@H](CC(C)C)NC(=O)C(C)(C)NC(=O)[C@@H](NC(=O)[C@H](CO)NC(=O)[C@H](Cc2ccc(O)cc2)NC(=O)[C@H](CC(=O)O)NC(=O)[C@H](CO)NC(=O)[C@@H](NC(=O)[C@H](Cc2ccccc2)NC(=O)[C@@H](NC(=O)CNC(=O)[C@H](CCC(=O)O)NC(=O)C(C)(C)NC(=O)[C@@H](N)Cc2ccc(O)cc2)[C@@H](C)O)[C@@H](C)O)[C@@H](C)CC)C(=O)N[C@@H](C)C(=O)N[C@@H](Cc2ccccc2)C(=O)N[C@@H]([C@@H](C)CC)C(=O)N1)C(=O)N[C@@H](C)C(=O)NCC(=O)NCC(=O)N1CCC[C@H]1C(=O)N[C@@H](CO)C(=O)N[C@@H](CO)C(=O)NCC(=O)N[C@@H](C)C(=O)N1CCC[C@H]1C(=O)N1CCC[C@H]1C(=O)N1CCC[C@H]1C(=O)N[C@@H](CO)C(N)=O [WX-006] (H-Y[Aib]EGTFTSDYSI[Aib]LDKK([AEEA-AEEA-γGlu-C20 diacid])AQKAFIEWLIAGGPSSGAPPPS-NH2; lactam 20-24) | 0.0035 | 10 | 16 | 0.846 | – | – | – | – | – | – | – | – | –
2 | CC[C@H](C)[C@H](NC(=O)[C@H](CC(C)C)NC(=O)[C@H](Cc1c[nH]c2ccccc12)NC(=O)[C@@H]1CCC(=O)NCCCC[C@H](NC(=O)[C@H](CCC(N)=O)NC(=O)[C@H](C)NC(=O)[C@H](CCCCNC(=O)COCCOCCNC(=O)COCCOCCNC(=O)CC[C@H](NC(=O)CC[C@H](NC(=O)CCCCCCCCCCCCCCCCCCC(=O)O)C(=O)O)C(=O)O)NC(=O)[C@H](CCCCN)NC(=O)[C@H](CC(=O)O)NC(=O)[C@H](CC(C)C)NC(=O)C(C)(C)NC(=O)[C@@H](NC(=O)[C@H](CO)NC(=O)[C@H](Cc2ccc(O)cc2)NC(=O)[C@H](CC(=O)O)NC(=O)[C@H](CO)NC(=O)[C@@H](NC(=O)[C@H](Cc2ccccc2)NC(=O)[C@@H](NC(=O)CNC(=O)[C@H](CCC(=O)O)NC(=O)C(C)(C)NC(=O)[C@@H](N)Cc2ccc(O)cc2)[C@@H](C)O)[C@@H](C)O)[C@@H](C)CC)C(=O)N[C@@H](C)C(=O)N[C@@H](Cc2ccccc2)C(=O)N[C@@H](C(C)C)C(=O)N1)C(=O)N[C@@H](C)C(=O)NCC(=O)NCC(=O)N1CCC[C@H]1C(=O)N[C@@H](CO)C(=O)N[C@@H](CO)C(=O)NCC(=O)N[C@@H](C)C(=O)N1CCC[C@H]1C(=O)N1CCC[C@H]1C(=O)N1CCC[C@H]1C(=O)N[C@@H](CO)C(N)=O [WX-002] (H-Y[Aib]EGTFTSDYSI[Aib]LDKK([AEEA-AEEA-γGlu-γGlu-C20 diacid])AQKAFVEWLIAGGPSSGAPPPS-NH2; lactam 20-24) | – | – | 14 | – | 0.0021 | 17 | 1.32 | – | – | – | – | – | –
3 | CC[C@H](C)[C@H](NC(=O)[C@H](CC(C)C)NC(=O)[C@H](Cc1c[nH]c2ccccc12)NC(=O)[C@@H]1CCC(=O)NCCCC[C@H](NC(=O)[C@H](CCC(N)=O)NC(=O)[C@H](C)NC(=O)[C@H](CCCCNC(=O)COCCOCCNC(=O)COCCOCCNC(=O)CC[C@H](NC(=O)CCCCCCCCCCCCCCCCCCC(=O)O)C(=O)O)NC(=O)[C@H](CCCCN)NC(=O)[C@H](CC(=O)O)NC(=O)[C@H](CC(C)C)NC(=O)C(C)(C)NC(=O)[C@@H](NC(=O)[C@H](CO)NC(=O)[C@H](Cc2ccc(O)cc2)NC(=O)[C@H](CC(=O)O)NC(=O)[C@H](CO)NC(=O)[C@@H](NC(=O)[C@H](Cc2ccccc2)NC(=O)[C@@H](NC(=O)CNC(=O)[C@H](CCC(=O)O)NC(=O)C(C)(C)NC(=O)[C@@H](N)Cc2ccc(O)cc2)[C@@H](C)O)[C@@H](C)O)[C@@H](C)CC)C(=O)N[C@@H](C)C(=O)N[C@@H](Cc2ccccc2)C(=O)N[C@@H](C(C)C)C(=O)N1)C(=O)N[C@@H](C)C(=O)NCC(=O)NCC(=O)N1CCC[C@H]1C(=O)N[C@@H](CO)C(=O)N[C@@H](CO)C(=O)NCC(=O)N[C@@H](C)C(=O)N1CCC[C@H]1C(=O)N1CCC[C@H]1C(=O)N1CCC[C@H]1C(=O)N[C@@H](CO)C(N)=O [WX-001] (H-Y[Aib]EGTFTSDYSI[Aib]LDKK([AEEA-AEEA-γGlu-C20 diacid])AQKAFVEWLIAGGPSSGAPPPS-NH2; lactam 20-24) | – | 12 | 22 | 0.728 | – | – | – | NA/NA | NA/NA | 15.5 | 5.28 | 1.55 | 85.5
4 | CC[C@H](C)[C@H](NC(=O)[C@H](CC(C)C)NC(=O)[C@H](Cc1c[nH]c2ccccc12)NC(=O)[C@@H]1CCC(=O)NCCCC[C@H](NC(=O)[C@H](CCC(N)=O)NC(=O)[C@H](C)NC(=O)[C@H](CCCCNC(=O)COCCOCCNC(=O)COCCOCCNC(=O)CC[C@H](NC(=O)CCCCCCCCCCCCCCCCCCC(=O)O)C(=O)O)NC(=O)[C@H](CCCCN)NC(=O)[C@H](CC(=O)O)NC(=O)[C@H](CC(C)C)NC(=O)C(C)(C)NC(=O)[C@@H](NC(=O)[C@H](CO)NC(=O)[C@H](Cc2ccc(O)cc2)NC(=O)[C@H](CC(=O)O)NC(=O)[C@H](CO)NC(=O)[C@@H](NC(=O)[C@H](Cc2ccccc2)NC(=O)[C@@H](NC(=O)CNC(=O)[C@H](CCC(=O)O)NC(=O)C(C)(C)NC(=O)[C@@H](N)Cc2ccc(O)cc2)[C@@H](C)O)[C@@H](C)O)[C@@H](C)CC)C(=O)N[C@@H](CCC(=O)O)C(=O)N[C@@H](Cc2ccccc2)C(=O)N[C@@H](C(C)C)C(=O)N1)C(=O)N[C@@H](C)C(=O)NCC(=O)NCC(=O)N1CCC[C@H]1C(=O)N[C@@H](CO)C(=O)N[C@@H](CO)C(=O)NCC(=O)N[C@@H](C)C(=O)N1CCC[C@H]1C(=O)N1CCC[C@H]1C(=O)N1CCC[C@H]1C(=O)N[C@@H](CO)C(N)=O [WX-005] (H-Y[Aib]EGTFTSDYSI[Aib]LDKK([AEEA-AEEA-γGlu-C20 diacid])AQKEFVEWLIAGGPSSGAPPPS-NH2; lactam 20-24) | 0.0022 | 17 | 14 | 1.33 | – | – | – | – | – | – | – | – | –
